In patent publication US7517874B2 (priority 2007, dated 2009):

Legend:
rat CB2 receptor (rCB2) = target: T1, rat CB2 receptor (rCB2) (Rattus norvegicus, UniProt Q9QZN9); assay: cell-based; assay type: cell-based; conditions: for +/− RCB2: agonist or inverse agonist at rCB2
T1 sequence (Q9QZN9 1-360): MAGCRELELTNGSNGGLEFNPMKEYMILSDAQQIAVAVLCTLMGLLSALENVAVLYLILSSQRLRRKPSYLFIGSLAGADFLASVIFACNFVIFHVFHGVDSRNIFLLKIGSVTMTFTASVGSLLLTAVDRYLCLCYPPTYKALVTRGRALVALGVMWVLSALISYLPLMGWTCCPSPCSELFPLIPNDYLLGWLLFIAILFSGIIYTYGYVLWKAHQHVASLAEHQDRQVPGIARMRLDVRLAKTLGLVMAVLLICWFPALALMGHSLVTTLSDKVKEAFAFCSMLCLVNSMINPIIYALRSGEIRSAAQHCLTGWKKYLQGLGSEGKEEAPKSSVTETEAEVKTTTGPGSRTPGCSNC
Procedure, shortened: (§1)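 First, cells in IBMX-containing HEPES-buffered HBSS are raised to elevated cAMP with 2-8 μM NKH-477 for 30 min. Data are normalised to the forskolin and forskolin + 1 μM CP55,940 controls.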

[1] = target: human CB1 receptor (hCB1) (Homo sapiens, UniProt P21554); assay: cell-based; assay type: cell-based; conditions: for +/− HCB1: agonist or inverse agonist at hCB1
human CB1 receptor (hCB1), sequence (P21554 whole entry): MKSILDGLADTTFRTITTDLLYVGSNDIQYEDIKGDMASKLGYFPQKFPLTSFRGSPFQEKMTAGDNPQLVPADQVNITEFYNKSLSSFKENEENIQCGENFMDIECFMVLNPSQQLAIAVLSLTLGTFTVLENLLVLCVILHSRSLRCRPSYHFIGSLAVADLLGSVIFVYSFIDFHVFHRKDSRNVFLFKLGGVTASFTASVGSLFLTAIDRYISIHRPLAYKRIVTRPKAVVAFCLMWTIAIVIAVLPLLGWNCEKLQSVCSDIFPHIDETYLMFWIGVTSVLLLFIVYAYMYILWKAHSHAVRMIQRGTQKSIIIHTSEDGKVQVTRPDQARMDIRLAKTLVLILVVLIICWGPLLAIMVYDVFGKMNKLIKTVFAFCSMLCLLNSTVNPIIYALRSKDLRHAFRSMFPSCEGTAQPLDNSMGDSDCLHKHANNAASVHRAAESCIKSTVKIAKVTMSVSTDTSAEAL
Procedure, shortened: as §1

Row | Structure (SMILES) | EC50 (rat CB2 receptor (rCB2)) [µM] | EC50 [1] [µM] | +/− RCB2 (rat CB2 receptor (rCB2)) | +/− HCB1 [1]
1 | CCCCCc1nc(C(=O)N[C@H](C(=O)NC)C(C)(C)C)c2n1CCCN(C)C2 [Compound 484, (S)-N-(3,3-dimethyl-1-(methylamino)-1-oxobutan-2-yl)-8-methyl-3-pentyl-6,7,8,9-tetrahydro-5H-imidazo[1,5-a][1,4]diazepine-1-carboxamide] | > 10 | > 10 |  | 
2 | CNC(=O)[C@@H](NC(=O)c1nc(-c2ccc(C(F)(F)F)cc2F)n2c1CN(C)CCC2)C(C)(C)C [Compound 368, (S)-N-(3,3-dimethyl-1-(methylamino)-1-oxobutan-2-yl)-3-(2-fluoro-4-(trifluoromethyl)phenyl)-8-methyl-6,7,8,9-tetrahydro-5H-imidazo[1,5-a][1,4]diazepine-1-carboxamide] |  |  | + | +
3 | CNC(=O)[C@@H](NC(=O)c1nc(C(C)=C(C)C)n2c1CN(C)CCC2)C(C)(C)C [Compound 454, (S)-N-(3,3-dimethyl-1-(methylamino)-1-oxobutan-2-yl)-8-methyl-3-(3-methylbut-2-en-2-yl)-6,7,8,9-tetrahydro-5H-imidazo[1,5-a][1,4]diazepine-1-carboxamide] |  |  | − | +
4 | CNC(=O)[C@@H](NC(=O)c1nc(-c2cccc(C(N)=O)c2)n2c1CN(C)CCC2)C(C)(C)C [Compound 422, (S)-3-(3-carbamoylphenyl)-N-(3,3-dimethyl-1-(methylamino)-1-oxobutan-2-yl)-8-methyl-6,7,8,9-tetrahydro-5H-imidazo[1,5-a][1,4]diazepine-1-carboxamide] | > 10 | > 10 |  | 
5 | CNC(=O)[C@@H](NC(=O)c1nc(-c2ccc(C(=O)N3CCOCC3)cc2)n2c1CN(C)CCC2)C(C)(C)C [Compound 401, (S)-N-(3,3-dimethyl-1-(methylamino)-1-oxobutan-2-yl)-8-methyl-3-(4-(morpholine-4-carbonyl)phenyl)-6,7,8,9-tetrahydro-5H-imidazo[1,5-a][1,4]diazepine-1-carboxamide] | > 10 | > 10 |  | 
6 | CNC(=O)[C@@H](NC(=O)c1nc(-c2ccccc2)n2c1CN(C)CCC2)C(C)(C)O [Compound 607, (S)-N-(3-hydroxy-3-methyl-1-(methylamino)-1-oxobutan-2-yl)-8-methyl-3-phenyl-6,7,8,9-tetrahydro-5H-imidazo[1,5-a][1,4]diazepine-1-carboxamide] |  | > 10 | + | 
7 | CNC(=O)[C@@H](NC(=O)c1nc(/C=C/COC)n2c1CN(C)CC2)C(C)(C)C [Compound 264, (S,E)-N-(3,3-dimethyl-1-(methylamino)-1-oxobutan-2-yl)-3-(3-methoxyprop-1-enyl)-7-methyl-5,6,7,8-tetrahydroimidazo[1,5-a]pyrazine-1-carboxamide] |  | > 10 | + | 
8 | CNC(=O)[C@@H](NC(=O)c1nc(-c2ccccc2)n2c1CN(Cc1cnn(C)c1)CC2)C(C)(C)C [Compound 66, (S)-N-(3,3-dimethyl-1-(methylamino)-1-oxobutan-2-yl)-7-((1-methyl-1H-pyrazol-4-yl)methyl)-3-phenyl-5,6,7,8-tetrahydroimidazo[1,5-a]pyrazine-1-carboxamide] |  | > 10 | + | 
9 | CNC(=O)[C@@H](NC(=O)c1nc(-c2cc(F)cc(C(N)=O)c2)n2c1CN(C)CCC2)C(C)(C)C [Compound 416, (S)-3-(3-carbamoyl-5-fluorophenyl)-N-(3,3-dimethyl-1-(methylamino)-1-oxobutan-2-yl)-8-methyl-6,7,8,9-tetrahydro-5H-imidazo[1,5-a][1,4]diazepine-1-carboxamide] |  | > 10 | + | 
10 | CNC(=O)[C@@H](NC(=O)c1nc(-c2cc(F)c(OC)cc2F)n2c1CN(C)CCC2)C(C)(C)C [Compound 424, (S)-3-(2,5-difluoro-4-methoxyphenyl)-N-(3,3-dimethyl-1-(methylamino)-1-oxobutan-2-yl)-8-methyl-6,7,8,9-tetrahydro-5H-imidazo[1,5-a][1,4]diazepine-1-carboxamide] |  | > 10 | + | 
